Laboratory results as given in US20220356186A1, “PERK INHIBITING PYRROLOPYRIMIDINE COMPOUNDS” (HiberCell, Inc., priority 2019, published 2022).
pIC50: −log10 of the molar value. Where two headings read alike, the source gives them in different places.

How the values were obtained:
select kinases = assay: KINOMEscan in vitro competition binding assay for select kinases
[1] = test system: GFP-eIF2α in HEK293 cells; assay: PERK cellular assay, TR-FRET in HEK293-EGFP-eIF2a cells after tunicamycin-induced ER stress; format: cell-based; conditions: HEK293-EGFP-eIF2a cells, tunicamycin 2 hours, read-out: Cellular eIF2α IC50
Outline: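 HEK293 cells stably expressing GFP-eIF2α, plated 5000 cells/well overnight, pretreated with inhibitors 30 min at 37 °C, then ER stress induced with tunicamycin […] for 2 h.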

[2] = target: T1, EIF2AK3 (PERK) catalytic domain (amino acids 536-1116) (Homo sapiens, UniProt Q9NZJ5); assay: PERK in vitro activity assay (isolated), TR-FRET kinase assay; format: biochemical; conditions: isolated PERK enzyme, 1.5 μM ATP; read-out: Biochemical IC50
T1 construct: EIF2AK3 (PERK) catalytic domain (amino acids 536-1116)
T1 sequence (Q9NZJ5 536-1116): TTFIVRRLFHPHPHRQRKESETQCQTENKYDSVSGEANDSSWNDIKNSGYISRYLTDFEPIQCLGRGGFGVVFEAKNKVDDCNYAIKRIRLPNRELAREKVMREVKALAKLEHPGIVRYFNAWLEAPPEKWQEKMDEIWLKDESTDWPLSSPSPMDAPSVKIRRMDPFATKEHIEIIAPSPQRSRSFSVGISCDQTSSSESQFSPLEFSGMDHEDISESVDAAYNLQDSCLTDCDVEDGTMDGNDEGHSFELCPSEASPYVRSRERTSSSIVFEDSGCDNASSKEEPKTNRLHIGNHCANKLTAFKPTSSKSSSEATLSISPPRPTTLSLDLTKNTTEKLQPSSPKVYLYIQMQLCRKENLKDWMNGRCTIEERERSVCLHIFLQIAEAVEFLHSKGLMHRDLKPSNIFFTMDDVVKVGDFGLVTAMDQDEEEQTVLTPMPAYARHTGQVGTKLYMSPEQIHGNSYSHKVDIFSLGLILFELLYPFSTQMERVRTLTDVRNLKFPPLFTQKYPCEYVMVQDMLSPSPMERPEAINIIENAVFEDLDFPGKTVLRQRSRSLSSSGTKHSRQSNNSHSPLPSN
Outline: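 Human PERK catalytic domain (aa 536-1116) phosphorylating 100-200 nM GFP-eIF2a in 50 mM HEPES pH 7.5, 10 mM MgCl2, 1 mM EGTA, 0.01% Brij-35; enzyme-started, 45 min at room temperature. Stopped with 10 mM EDTA, 2 nM Tb-anti-phospho-eIF2a added for 90 min; IC50 from TR-FRET ratios by 4-parameter logistic fit.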

## Cc1cccc(CC(=O)N2CCc3c2ccc(-c2cn(C)c4ncnc(N)c24)c3F)n1 [GSK2656157, reference compound]
Select kinases; kinase AURKB
  KINOMEscan competition binding, inhibition of AURKB: Inhibition (“Inhibition” refers to greater than 50% inhibition)
Select kinases; kinase AXL
  KINOMEscan competition binding, inhibition of AXL: Inhibition (“Inhibition” refers to greater than 50% inhibition)
Select kinases; kinase BLK
  KINOMEscan competition binding, inhibition of BLK: Inhibition (“Inhibition” refers to greater than 50% inhibition)
Select kinases; kinase CAMK4
  KINOMEscan competition binding, inhibition of CAMK4: No inhibition
Select kinases; kinase CDK8
  KINOMEscan competition binding, inhibition of CDK8: Inhibition (“Inhibition” refers to greater than 50% inhibition)
Select kinases; kinase CDK11
  KINOMEscan competition binding, inhibition of CDK11: Inhibition (“Inhibition” refers to greater than 50% inhibition)
Select kinases; kinase CSF1R
  KINOMEscan competition binding, inhibition of CSF1R: Inhibition (“Inhibition” refers to greater than 50% inhibition)
Select kinases; kinase EIF2AK1
  KINOMEscan competition binding, inhibition of EIF2AK1: Inhibition (“Inhibition” refers to greater than 50% inhibition)
Select kinases; kinase EPHB6
  KINOMEscan competition binding, inhibition of EPHB6: Inhibition (“Inhibition” refers to greater than 50% inhibition)
Select kinases; kinase FLT3
  KINOMEscan competition binding, inhibition of FLT3: No Inhibition (“No Inhibition” refers to less than 50% inhibition)
Select kinases; kinase HIPK4
  KINOMEscan competition binding, inhibition of HIPK4: No Inhibition (“No Inhibition” refers to less than 50% inhibition)
Select kinases; kinase LOK
  KINOMEscan competition binding, inhibition of LOK: Inhibition (“Inhibition” refers to greater than 50% inhibition)
Select kinases; kinase MAP3K2
  KINOMEscan competition binding, inhibition of MAP3K2: Inhibition (“Inhibition” refers to greater than 50% inhibition)
Select kinases; kinase MAP3K3
  KINOMEscan competition binding, inhibition of MAP3K3: No Inhibition (“No Inhibition” refers to less than 50% inhibition)
Select kinases; kinase MAP3K15
  KINOMEscan competition binding, inhibition of MAP3K15: No Inhibition (“No Inhibition” refers to less than 50% inhibition)
Select kinases; kinase MEK5
  KINOMEscan competition binding, inhibition of MEK5: Inhibition (“Inhibition” refers to greater than 50% inhibition)
Select kinases; kinase MKNK2
  KINOMEscan competition binding, inhibition of MKNK2: No Inhibition (“No Inhibition” refers to less than 50% inhibition)
Select kinases; kinase NEK1
  KINOMEscan competition binding, inhibition of NEK1: No Inhibition (“No Inhibition” refers to less than 50% inhibition)
Select kinases; kinase NEK5
  KINOMEscan competition binding, inhibition of NEK5: No Inhibition (“No Inhibition” refers to less than 50% inhibition)
Select kinases; kinase PIK3C2B
  KINOMEscan competition binding, inhibition of PIK3C2B: No Inhibition (“No Inhibition” refers to less than 50% inhibition)
Select kinases; kinase RIOK2
  KINOMEscan competition binding, inhibition of RIOK2: Inhibition (“Inhibition” refers to greater than 50% inhibition)
Select kinases; kinase RIPK1
  KINOMEscan competition binding, inhibition of RIPK1: Inhibition (“Inhibition” refers to greater than 50% inhibition)
Select kinases; kinase RIPK2
  KINOMEscan competition binding, inhibition of RIPK2: No Inhibition (“No Inhibition” refers to less than 50% inhibition)
Select kinases; kinase RIPK5
  KINOMEscan competition binding, inhibition of RIPK5: No Inhibition (“No Inhibition” refers to less than 50% inhibition)
Select kinases; kinase TESK1
  KINOMEscan competition binding, inhibition of TESK1: No Inhibition (“No Inhibition” refers to less than 50% inhibition)
Select kinases; kinase TIE2
  KINOMEscan competition binding, inhibition of TIE2: No Inhibition (“No Inhibition” refers to less than 50% inhibition)
Select kinases; kinase TRKA
  KINOMEscan competition binding, inhibition of TRKA: Inhibition (“Inhibition” refers to greater than 50% inhibition)
Select kinases; kinase TRKB
  KINOMEscan competition binding, inhibition of TRKB: No Inhibition (“No Inhibition” refers to less than 50% inhibition)
Select kinases; kinase TRKC
  KINOMEscan competition binding, inhibition of TRKC: Inhibition (“Inhibition” refers to greater than 50% inhibition)
Select kinases; kinase VRK2
  KINOMEscan competition binding, inhibition of VRK2: Inhibition (“Inhibition” refers to greater than 50% inhibition)
Select kinases; kinase YANK1
  KINOMEscan competition binding, inhibition of YANK1: No Inhibition (“No Inhibition” refers to less than 50% inhibition)
Select kinases; kinase YANK2
  KINOMEscan competition binding, inhibition of YANK2: No Inhibition (“No Inhibition” refers to less than 50% inhibition)
Select kinases; kinase YSK4
  KINOMEscan competition binding, inhibition of YSK4: Inhibition (“Inhibition” refers to greater than 50% inhibition)

## Cn1cc(-c2ccc(NC(=O)C(O)c3cccc(F)c3)cc2)c2c(N)ncnc21 (stereo not shown) [Example 30, N-(4-(4-amino-7-methyl-7H-pyrrolo[2,3-d]pyrimidin-5-yl)phenyl)-2-(3-fluorophenyl)-2-hydroxyacetamide]
[1]
  pIC50: 6.60 to 7.00
[2]
  pIC50: 7.60 to 9.00

## Cc1cccc(C(O)C(=O)Nc2ccc(-c3cn(C)c4nc(C)nc(N)c34)c(F)c2)c1 (stereo not shown) [Example 74, N-(4-(4-amino-2,7-dimethyl-7H-pyrrolo[2,3-d]pyrimidin-5-yl)-3-fluorophenyl)-2-hydroxy-2-(m-tolyl)acetamide]
[1]
  pIC50: 7.60 to 9.00
[2]
  pIC50: 7.60 to 9.00

## Cc1nc(N)c2c(-c3ccc(NC(=O)C(O)c4cccc(C(F)(F)F)c4)nc3C)cn(C)c2n1 (stereo not shown) [Example 130, N-(5-(4-amino-2,7-dimethyl-7H-pyrrolo[2,3-d]pyrimidin-5-yl)-6-methylpyridin-2-yl)-2-hydroxy-2-(3-(trifluoromethyl)phenyl)acetamide]
[1]
  pIC50: 5.70 to 6.00
[2]
  pIC50: 6.60 to 7.00

## CCc1cccc(C(O)C(=O)Nc2ccc(-c3cn(C)c4nc(C)nc(N)c34)c(Cl)c2)c1 (stereo not shown) [Example 98, N-(4-(4-amino-2,7-dimethyl-7H-pyrrolo[2,3-d]pyrimidin-5-yl)-3-chlorophenyl)-2-(3-ethylphenyl)-2-hydroxyacetamide]
[1]
  pIC50: 6.30 to 6.60
[2]
  pIC50: 7.00 to 7.29

## Cc1cc(NC(=O)C(O)c2cccc(F)c2)ccc1-c1cn(C)c2ncnc(N)c12 (stereo not shown) [Example 10, N-(4-(4-amino-7-methyl-7H-pyrrolo[2,3-d]pyrimidin-5-yl)-3-methylphenyl)-2-(3-fluorophenyl)-2-hydroxyacetamide]
[1]
  pIC50: 7.00 to 7.29
[2]
  pIC50: 7.60 to 9.00

## Cc1cc(NC(=O)Cc2ccc3ccccc3c2)ccc1-c1cn(C)c2ncnc(N)c12 [Example 152, N-(4-(4-amino-7-methyl-7H-pyrrolo[2,3-d]pyrimidin-5-yl)-3-methylphenyl)-2-(naphthalen-2-yl)acetamide]
[1]; Homo sapiens, HEK293, 2 h
  pIC50: 7.00 to 7.29
[2]
  pIC50: 7.60 to 9.00

## Cc1nc(N)c2c(-c3ccc(NC(=O)C(O)c4cc(F)cc(F)c4)cc3C)cn(C)c2n1 (stereo not shown) [Example 53, N-(4-(4-amino-2,7-dimethyl-7H-pyrrolo[2,3-d]pyrimidin-5-yl)-3-methylphenyl)-2-(3,5-difluorophenyl)-2-hydroxyacetamide]
[1]
  pIC50: 6.30 to 6.60
[2]
  pIC50: 7.30 to 7.59

## Cc1cccc(C(O)C(=O)Nc2ccc(-c3cn(C)c4ncnc(N)c34)c(C)c2)c1 (stereo not shown) [Example 41, N-(4-(4-amino-7-methyl-7H-pyrrolo[2,3-d]pyrimidin-5-yl)-3-methylphenyl)-2-hydroxy-2-(m-tolyl)acetamide]
[1]; Homo sapiens, HEK293, 2 h
  pIC50: 7.60 to 9.00
[2]
  pIC50: 7.60 to 9.00

## Cc1cc(NC(=O)CC2CC2)ccc1-c1cn(C)c2ncnc(N)c12 [Example 163, N-(4-(4-amino-7-methyl-7H-pyrrolo[2,3-d]pyrimidin-5-yl)-3-methylphenyl)-2-cyclopropyl-acetamide]
[1]; Homo sapiens, HEK293, 2 h
  pIC50: < 5.30
[2]
  pIC50: < 5.30

## Cn1cc(-c2ccc(NC(=O)C(O)c3cccc(F)c3)cc2Cl)c2c(N)ncnc21 (stereo not shown) [Example 15, N-(4-(4-amino-7-methyl-7H-pyrrolo[2,3-d]pyrimidin-5-yl)-3-chlorophenyl)-2-(3-fluorophenyl)-2-hydroxyacetamide]
[1]
  pIC50: 7.00 to 7.29
[2]
  pIC50: 7.30 to 7.59

## Cc1cc(NC(=O)Nc2ccccc2)ccc1-c1cn(C)c2ncnc(N)c12 [Example 170, 1-(4-(4-amino-7-methyl-7H-pyrrolo[2,3-d]pyrimidin-5-yl)-3-methylphenyl)-3-phenylurea]
[1]; Homo sapiens, HEK293, 2 h
  pIC50: 6.60 to 7.00
[2]
  pIC50: 7.60 to 9.00
